Measured values from patent CN104650070A, “二氢嘧啶类化合物及其在药物中的应用” (Guangdong HEC Pharmaceutical Co Ltd, priority 2013, dated 2015).

system: HBV in HepG2.2.15 cells (HBV HepG2.2.15细胞株); assay: In vitro anti-HBV activity in HBV HepG2.2.15 cell line (qPCR of HBV DNA in culture supernatant); assay type: cell-based; details: Hepatitis B virus, 192 h, HBV DNA in culture supernatant by qPCR, collected on day 8, top concentration 16.4 μM, 3-fold dilution, 9 points, duplicate wells

Row | Structure (SMILES) | EC50 [nM]
1 | COC(=O)C1=C(CN2CCOC(CCC(=O)NS(=O)(=O)c3ccccc3)C2)NC(c2nccs2)=NC1c1ccc(Cl)cc1Cl (centres unmarked) [实施例19, 4-(2,4-二氯苯基)-6-((2-(3-氧代-3-(苯磺酰胺)丙基)吗啉代)甲基)-2-(噻唑-2-基)-1,4-二氢嘧啶-5-甲酸甲酯] | 560
2 | CCOC(=O)C1=C(CN2CCOC(CCC(=O)Nc3ccccc3)C2)NC(c2nccs2)=NC1c1ccc(Cl)cc1Cl (centres unmarked) [实施例16, 4-(2,4-二氯苯基)-6-((-2-(3-氧代-3-(苯胺)丙基)吗啉代)甲基)-2-(噻唑-2-基)-1,4-二氢嘧啶-5-甲酸乙酯] | 490
3 | CCOC(=O)C1=C(CN2CCOC[C@H]2C(=O)NS(C)(=O)=O)NC(c2nccs2)=NC1c1ccc(F)cc1Br (stereo partly drawn) [实施例1, 4-(2-溴-4-氟苯基)-6-(((S)-3-((甲磺酰基)氨甲酰基)吗啉代)甲基)-2-(噻唑-2-基)-1,4-二氢嘧啶-5-甲酸乙酯] | 1000
4 | CCOC(=O)C1=C(CN2CCOC[C@H]2C(=O)Nc2ccccc2)NC(c2nccs2)=N[C@H]1c1ccc(F)cc1Cl [实施例11, (R)-4-(2-氯-4-氟苯基)-6-(((S)-3-(苯基氨甲酰基)吗啉代)甲基)-2-(噻唑-2-基)-1,4-二氢嘧啶-5-甲酸乙酯] | 920
5 | CCOC(=O)C1=C(CN2CCOC(CCC(=O)Nc3ccccc3)C2)NC(c2nccs2)=NC1c1ccc(F)cc1Cl (centres unmarked) [实施例15, 4-(2-氯-4-氟苯基)-6-((-2-(3-氧代-3-(苯胺)丙基)吗啉代)甲基)-2-(噻唑-2-基)-1,4-二氢嘧啶-5-甲酸乙酯] | 670
6 | CCOC(=O)C1=C(CN2CCOC[C@H]2C(=O)NCc2ccccc2)NC(c2nccs2)=N[C@H]1c1ccc(Cl)cc1Cl [实施例9, (R)-6-(((S)-3-(苄基氨甲酰)吗啉代)甲基)-4-(2,4-二氯苯基)-2-(噻唑-2-基)-1,4-二氢嘧啶-5-甲酸乙酯] | 540
7 | CCOC(=O)C1=C(CN2CCOC[C@H]2C(=O)NC2CC2)NC(c2nccs2)=N[C@H]1c1ccc(F)cc1Br [实施例4, (R)-4-(2-溴-4-氟苯基)-6-(((S)-3-(环丙氨甲酰基)吗啉代)甲基)-2-(噻唑-2-基)-1,4-二氢嘧啶-5-甲酸乙酯] | 700
8 | CCOC(=O)C1=C(CN2CCOC[C@H]2C(=O)NC2CC2)NC(c2nccs2)=N[C@H]1c1ccc(Cl)cc1Cl [实施例6, (R)-6-(((S)-3-(环丙氨甲酰基)吗啉代)甲基)-4-(2,4-二氯苯基)-2-(噻唑-2-基)-1,4-二氢嘧啶-5-甲酸乙酯] | 650
9 | CCOC(=O)C1=C(CN2CCOC[C@H]2C(=O)Nc2ccccc2)NC(c2nccs2)=N[C@H]1c1ccc(Cl)cc1Cl [实施例12, (R)-4-(2,4-二氯苯基)-6-(((S)-3-(苯基氨甲酰基)吗啉代)甲基)-2-(噻唑-2-基)-1,4-二氢嘧啶-5-甲酸乙酯] | 720
10 | CCOC(=O)C1=C(CN2CCOC(CCC(=O)Nc3ccccc3)C2)NC(c2nccs2)=NC1c1ccc(F)cc1Br (centres unmarked) [实施例14, 4-(2-溴-4-氟苯基)-6-((-2-(3-氧代-3-(苯胺)丙基)吗啉代)甲基)-2-(噻唑-2-基)-1,4-二氢嘧啶-5-甲酸乙酯] | 540
11 | CCOC(=O)C1=C(CN2CCOC(CCC(=O)NCc3ccccc3)C2)NC(c2nccs2)=NC1c1ccc(F)cc1Br (centres unmarked) [实施例3, 6-((2-(3-(苄胺)-3-氧代丙基)吗啉)甲基)-4-(2-溴-4-氟苯基)-2-(噻唑-2-基)-1,4-二氢嘧啶-5-甲酸乙酯] | 130
12 | CCOC(=O)C1=C(CN2CCOC[C@H]2C(=O)NCc2ccccc2)NC(c2nccs2)=N[C@H]1c1ccc(F)cc1Cl [实施例8, (R)-6-(((S)-3-(苄基氨甲酰基)吗啉代)甲基)-4-(2-氯-4-氟苯基)-2-(噻唑-2-基)-1,4-二氢嘧啶-5-甲酸乙酯] | 890
13 | COC(=O)C1=C(CN2CCOC(CCC(=O)NS(=O)(=O)c3ccccc3)C2)NC(c2nccs2)=NC1c1ccc(F)cc1Cl (centres unmarked) [实施例18, 4-(2-氯-4-氟苯基)-6-((2-(3-氧代-3-(苯磺酰胺)丙基)吗啉代)甲基)-2-(噻唑-2-基)-1,4-二氢嘧啶-5-甲酸甲酯] | 740
14 | CCOC(=O)C1=C(CN2CCOC[C@H]2C(=O)NCc2ccccc2)NC(c2nccs2)=N[C@H]1c1ccc(F)cc1Br [实施例7, (R)-6-(((S)-3-(苄基氨甲酰基)吗啉代)甲基)-4-(2-溴-4-氟苯基)-2-(噻唑-2-基)-1,4-二氢嘧啶-5-甲酸乙酯] | 670
15 | COC(=O)C1=C(CN2CCOC(CCC(=O)NS(=O)(=O)c3ccccc3)C2)NC(c2nccs2)=NC1c1ccc(F)cc1Br (centres unmarked) [实施例17, 4-(2-溴-4-氟苯基)-6-((-2-(3-氧代-3-(苯磺酰胺)丙基)吗啉代)甲基)-2-(噻唑-2-基)-1,4-二氢嘧啶-5-甲酸甲酯] | 650
16 | CCOC(=O)C1=C(CN2CCOC[C@H]2C(=O)Nc2ccccc2)NC(c2nccs2)=N[C@H]1c1ccc(F)cc1Br [实施例10, (R)-4-(2-溴-4-氟苯基)-6-(((S)-3-(苯基氨甲酰基)吗啉代)甲基)-2-(噻唑-2-基)-1,4-二氢嘧啶-5-甲酸乙酯] | 800
17 | CCOC(=O)C1=C(CN2CCOC[C@H]2C(=O)NC2CC2)NC(c2nccs2)=N[C@H]1c1ccc(F)cc1Cl [实施例5, (R)-4-(2-氯-4-氟苯基)-6-(((S)-3-(环丙氨甲酰基)吗啉代)甲基)-2-(噻唑-2-基)-1,4-二氢嘧啶-5-甲酸乙酯] | 800
18 | CCOC(=O)C1=C(CN2CCOC[C@H]2C(=O)NS(=O)(=O)C2CC2)NC(c2nccs2)=NC1c1ccc(F)cc1Br (stereo partly drawn) [实施例2, 4-(2-溴-4-氟苯基)-6-(((S)-3-((环丙磺酰基)氨甲酰基)吗啉)甲基)-2-(噻唑-2-基)-1,4-二氢嘧啶-5-甲酸乙酯] | 2300
19 | CCOC(=O)C1=C(CN2CCOC[C@H]2C(=O)Nc2nccs2)NC(c2nccs2)=N[C@H]1c1ccc(F)cc1Br [实施例13, (R)-4-(2-溴-4-氟苯基)-2-(噻唑-2-基)-6-(((S)-3-(噻唑-2-基氨甲酰)吗啉代)甲基)-1,4-二氢嘧啶-5-甲酸乙酯] | 1400

system: HBV; assay: not given; details: cited from Science, 299 (2003), 893-896; cited from earlier work

Row | Structure (SMILES) | IC50 [nM]
20 | Nc1ccn([C@@H]2CS[C@H](CO)O2)c(=O)n1 [拉米夫定] | 300
